We go through five compounds from ChEMBL document CHEMBL1126962, “Antagonists of luteinising hormone-releasing hormone (LHRH). Progress towards non-peptide leads” (1993).

What all share (assay type): functional
Assay [1] concerns Rattus norvegicus. In words: Effective dose required to inhibit ovulation in normal cycling rats at a dose of 2 mg/kg.
For assay [2], the species on record is Rattus norvegicus. As to the kind of experiment: Effective dose required to inhibit ovulation in normal cycling rats.
Assay [3] has as its system Rattus norvegicus. In words: Effective dose required to inhibit ovulation in normal cycling rats at 1 mg/kg.

A word on the inhibition in vivo: it is the drop in the measured response relative to a control, in per cent. A higher inhibition in vivo goes with strong suppression.

The compound `CC(C)C[C@@H]1NC(=O)[C@@H](CCCN=C(N)N)NC(=O)[C@@H]2CCC(=O)NCCCC[C@H](NC1=O)C(=O)N1CCC[C@H]1C(=O)N[C@H](C)C(=O)N[C@H](Cc1ccc(Cl)cc1)C(=O)N[C@H](Cc1ccc(Cl)cc1)C(=O)N[C@H](Cc1c[nH]c3ccccc13)C(=O)N[C@@H](CO)C(=O)N2` displayed an inhibition in vivo at 2 mg/kg in the assay on Rattus norvegicus [1] of 40%.
In turn, `CC(=O)N[C@H](Cc1ccc(Cl)cc1)C(=O)N[C@H](Cc1ccc(Cl)cc1)C(=O)N[C@H](Cc1c[nH]c2ccccc12)C(=O)N[C@@H](CO)C(=O)N[C@H]1CC(=O)NCCCC[C@@H](C(=O)N2CCC[C@H]2C(=O)N[C@H](C)C(N)=O)NC(=O)[C@H](CC(C)C)NC(=O)[C@@H](CCCN=C(N)N)NC1=O` displayed an ED50 in the assay filed under Rattus norvegicus [2] of 180 ug rat-1.
As to `CC(C)C[C@@H]1NC(=O)[C@@H](CCCN=C(N)N)NC(=O)[C@@H]2CCC(=O)NCCCC[C@H](NC1=O)C(=O)N1CCC[C@H]1C(=O)N(C)[C@H](C)C(=O)N[C@H](Cc1ccc(Cl)cc1)C(=O)N[C@H](Cc1ccc(Cl)cc1)C(=O)N[C@H](Cc1c[nH]c3ccccc13)C(=O)N[C@@H](CO)C(=O)N2`, in the assay with Rattus norvegicus [3], the ED50 stood at 200 ug rat-1 and the inhibition in vivo at 1 mg/kg was determined as 50%.
`CC(=O)N[C@H](Cc1ccc(Cl)cc1)C(=O)N[C@H](Cc1ccc(Cl)cc1)C(=O)N[C@H](Cc1c[nH]c2ccccc12)C(=O)N[C@@H](CO)C(=O)N[C@H]1CC(=O)NCCC[C@@H](C(=O)N2CCC[C@H]2C(=O)N[C@H](C)C(N)=O)NC(=O)[C@H](CC(C)C)NC(=O)[C@@H](CCCN=C(N)N)NC1=O` displayed an ED50 in the assay filed under Rattus norvegicus [2] of 540 ug rat-1.
Same read-out and setting: the same measure for `CC(=O)N[C@H](Cc1ccc(Cl)cc1)C(=O)N[C@H](Cc1ccc(Cl)cc1)C(=O)N[C@H](Cc1c[nH]c2ccccc12)C(=O)N[C@@H](CO)C(=O)N[C@H]1CCC(=O)NCCCC[C@@H](C(=O)N2CCC[C@H]2C(=O)N[C@H](C)C(N)=O)NC(=O)[C@H](CC(C)C)NC(=O)[C@@H](CCCN=C(N)N)NC1=O`: 90 ug rat-1.
